Measurements taken from patent US20180282415A1, “Combination of a PD-1 Axis Binding Antagonist and an ALK Inhibitor for Treating ALK-Negative Cancer” (Merck Patent GmbH, priority 2015, published 2018).

Legend:
[1] = system: CD3/CD28-stimulated effector cells (T cells from healthy donors' PBMCs); assay: T cell proliferation assay (3H thymidine incorporation), CD3/CD28-stimulated T cells; format: cell-based, human; conditions: log[Agonist]
From the text: (§1) Briefly, human cells were isolated from healthy donors' PBMCs by using EasySep™ Human T Cell Enrichment Kit (Stemcell Technologies) according to manufacturer's instruction. […] Culture supernatants were collected on Day 2 or 3 for cytokine analysis. Plates were then harvested on DNA specific filter papers (Perkin Elmer) using Harvester96 (Tomtec Life Sciences). The radiolabeled filters were covered with beta scintillation liquid (Perkin Elmer) and read in Microbeta® counter plates (Perkin Elmer). ^3H Thymidine was pulsed on Day 2 for T cell proliferation assay.

[2] = system: activated T cells; assay: T cell viability, Cell-Titer Glo Luminescent Cell Viability Assay; format: cell-based, human; conditions: log[Agonist]
Method: as §1, with “instruction. […] Cells were cultured in RPMI 1640 medium supplemented with 10% FCS and 100 I.U./mL penicillin/streptomycin in humidified incubator at 37° C. with 5% CO2.” for “instruction.”, “assay. The impact by sunitinib and axitinib on T cell proliferation and viability were repeated as previously published (FIGS. 1A and 1B).” for “assay.”
Cell viability was measured by Cell-Titer Glo Luminescent Cell Viability Assay® (Promega, Madison). […] Table 4 below provides the Luciferase RLU values reflecting T cell viability for each of the respective inhibitors.

[3] = system: CT26 colon carcinoma; assay: In vivo tumor efficacy, CT26 model, crizotinib or alectinib with anti-PD-L1 (Example 3); set-up: species or system Balb/c mice; conditions: alectinib study, alectinib 60 mg/kg, anti-mPDL1 10 mg/kg
From the text: CT26 colon carcinoma cell line has published mutanome and transcriptome data, with no known ALK fusion events or oncogenic mutations. Castle et al, BMC Genomics, 15:190 (13 Mar. 2014); Castle et al, CAN 11:3722 (11 Jan. 2012).
Six- to eight-week old female Balb/c or C57BL/6 mice were purchased from The Jackson Laboratories.
CT26 cell lines, anti-PD-L1 antibody and Rat IgG isotypes (IgG2a and IgG2b) were purchased from BioXCell (clones 2A3 and LTF2, respectively) and prepared as described in Example 2 above. […]

[4] = system: MC38 colon carcinoma; assay: In vivo tumor efficacy, MC38 model, crizotinib with avelumab (Example 5); set-up: species or system C57BL/6 mice; conditions: for Tumor Volume (Mean ± SEM): avelumab 20 mg/kg i.p., crizotinib 40 mg/kg orally QD
Method: Avelumab is a fully human IgG1 antibody that recognizes both human and mouse PD-L1. […] Six- to eight-week old female C57BL/6 mice were purchased from The Jackson Laboratories (Farmington, Conn.). Mice were maintained and all animal experiments were conducted according to the protocols approved by the Institutional Animal Care and Use Committee of Rinat, South San Francisco and Worldwide Research and Development (WRD), La Jolla, Pfizer Inc. MC38 colon carcinoma cell line was kindly provided by Dr. Antoni Ribas at UCLA, California. Cells were cultured in DMEM medium supplemented with 10% fetal bovine serum, and 100 I.U./mL penicillin/streptomycin at 37° C. in an atmosphere of 5% CO2 in air, and IMPACT-tested for pathogens at Research Animal Diagnostic Laboratory (RADIL) (Columbia, Mo.). Pathogen-free cells growing in an exponential growth phase were harvested and used for tumor inoculation. […] Human IgG1 was prepared in-house (Lot No. NB123249p192CA110124). […] Body weight was recorded weekly. […] Mice were monitored for tumor growth and body weight changes.

## CCN(CC)CCNC(=O)c1c(C)[nH]c(/C=C2\C(=O)Nc3ccc(F)cc32)c1C [Sunitinib, sunitinib]
[1]; μM: 0
  Thymidine incorporation(CPM): 493570.3 ± 59347.45 CPM
[1]; μM: 1
  Thymidine incorporation(CPM): 332 ± 105.9733 CPM
[1]; μM: 2
  Thymidine incorporation(CPM): 117.3333 ± 16.23 CPM
[1]; μM: 3
  Thymidine incorporation(CPM): 171 ± 25 CPM
[1]; μM: −1
  Thymidine incorporation(CPM): 468847.7 ± 39073.88 CPM
[1]; μM: −2
  Thymidine incorporation(CPM): 444679.3 ± 13911.18 CPM
[1]; μM: −3
  Thymidine incorporation(CPM): 469071 ± 48070.7 CPM
[2]; μM: 0
  Luciferase RLU (T cell viability): 98.24 ± 2.169 RLU
[2]; μM: 1
  Luciferase RLU (T cell viability): 13.95 ± 7.493 RLU
[2]; μM: 2
  Luciferase RLU (T cell viability): 0.8502 ± 0.2596 RLU
[2]; μM: 3
  Luciferase RLU (T cell viability): 1.827 RLU
[2]; μM: −1
  Luciferase RLU (T cell viability): 91.57 ± 2.195 RLU
[2]; μM: −2
  Luciferase RLU (T cell viability): 98.04 ± 2.634 RLU
[2]; μM: −3
  Luciferase RLU (T cell viability): 96.57 ± 1.711 RLU

## CCc1cc2c(cc1N1CCC(N3CCOCC3)CC1)C(C)(C)c1[nH]c3cc(C#N)ccc3c1C2=O [Alectinib, alectinib]
[3]; Day 7
  Tumor Volume (Mean ± SEM): 119.1 ± 12.5 mm^3
[3]; Day 14
  Tumor Volume (Mean ± SEM): 293.4 ± 54.2 mm^3
[3]; Day 19
  Tumor Volume (Mean ± SEM): 546.8 ± 98.0 mm^3
[3]; Day 24
  Tumor Volume (Mean ± SEM): 1114.2 ± 217.0 mm^3
[3]; Day 27
  Tumor Volume (Mean ± SEM): 1892.5 ± 283.1 mm^3

B1: Avelumab: fully human IgG1 antibody that recognizes both human and mouse PD-L1 (antibody, V domains shown)
VH: EVQLLESGGGLVQPGGSLRLSCAASGFTFSSYIMWVRQAPGKGLEWVSSIYPSGGITFYADKGRFTISRDNSKNTLYLQMNSLRAEDTAVYYCARIKLGTVTTVDYWGQGTLVTVSS
VL: QSALTQPASVSGSPGQSITISCTGTSSDVGGYNYVSWYQQHPGKAPKLMIYDVSNRPSGVSNRFSGSKSGNTASLTISGLQAEDEADYYCSSYTSSSTRVFGTGTKVTVL
[4]; Day 7
  Tumor Volume (Mean ± SEM): 78.3 ± 5.4 mm^3
[4]; Day 14
  Tumor Volume (Mean ± SEM): 145.5 ± 11.0 mm^3
[4]; Day 19
  Tumor Volume (Mean ± SEM): 307.1 ± 25.5 mm^3
[4]; Day 24
  Tumor Volume (Mean ± SEM): 535.0 ± 62.0 mm^3
[4]; Day 27
  Tumor Volume (Mean ± SEM): 817.7 ± 87.2 mm^3
[4]; compared with the isotype control antibody treated group, avelumab 20 mg/kg, crizotinib 40 mg/kg
  TGI: 49.7%
